Values joined by “and” are separate entries in the source; they are usually repeats but may differ in a detail not shown here. Identical values can stand only once. Counter-ions that a name gives are not always drawn.
Assay: Pharmacokinetics (lactone form, HPLC, non-compartmental) in plasma and urine, days 1 and 4 of first course
Text: British Journal of Cancer (1996) 73, 744-750 O (C? 1996 Stockton Press All rights reserved 0007-0920/96 $12.00 Phase I and pharmacological study of the new topoisomerase I inhibitor G1147211, using a daily x 5 intravenous administration CJH Gerrits', GJ Creemers', JHM Schellens', P Wissel2, AS Th Planting', R Kunka2, K Selinger2, M de Boer-Dennert', Y Marijnen3, M Harteveld' and J Verweijl 'Department of Medical Oncology, Rotterdam Cancer Institute, Rotterdam, The Netherlands; 2Glaxo Wellcome Inc, Department of Clinical Pharmacology, NC, USA; 3Glaxo Wellcome Inc, Department of Clinical Research, Zeist, The Netherlands. Summary Topoisomerase I inhibitors are interesting anti-cancer agents with a novel mechanism of action. […] In subsequent patient cohorts the dose was escalated from 0.3 to 1.5 mg m-2 day-'. Pharmacokinetics analysis was performed on days 1 and 4 of the first course using a validated high- performance liquid chromatographic assay and non-compartmental methods. […] Its further development was stopped because of unpredictable and severe myelosuppression, gastrointestinal toxicity and haemorrhagic cystitis. In the late 1980s two discoveries brought about a renewal of interest in CPT; firstly, topoisomerase I was identified as the single cellular target of CPT (Hsiang et al., 1985; Hsiang and Liu, 1988) and, secondly, an overexpression of topoisomerase I was found in various tumour cell lines but not in normal tissues (Giovanella et al., 1989; Hirabayaski et al., 1992; Potmesil et al., 1988). Topoisomerase I is a nuclear enzyme that resolves topological problems of the torsionally strained (supercoiled) DNA (Slichenmyer et al., 1993). This is achieved by forming a covalent adduct between topoisome- rase I and the DNA, termed the cleavable complex. This catalytic intermediate creates single-strand DNA breaks, allowing the DNA molecule to rotate around the intact DNA strand at the cleavage site, leading to a relaxation of the DNA molecule and in this way replication, transcription and other DNA functions can proceed. These enzyme- bridged breaks are then resealed by topoisomerase I. CPT stabilises the cleavable complexes, thereby preventing resealing of single-strand DNA breaks in the presence of the drug (Covey et al., 1989; D'Arpa and Liu, 1989; Eng et al., 1988). Cytotoxicity is specific to the S-phase of the cell cycle because the double-strand breaks that occur during this phase are more difficult to repair in the presence of the drug (Horwitz and Horwitz, 1973). […] Other eligibility criteria included: (1) age>, 18 years; (2) an Eastern Cooperative Oncology Group (ECOG) performance status <2; (3) a predicted life expectancy of at least 3 months; (4) no previous anti-cancer therapy for at least 3 weeks (6 weeks for previous nitro- soureas or mitomycin C); (5) adequate haemato- poietic (WBC) 3 x 109 -', ANC > 1.5 x 109 1-' and platelets 100 x 10 1- 1), hepatic (bilirubin within normal limits, AST, ALT and/or alkaline phosphatase < 2.0 x normal), and renal (serum creatinine < 130 imol 1-') functions. All patients gave written informed consent.

[1] = 0.3 mg m-2, day 1, individual patients 1-3 in order
[2] = 0.3 mg m-2, day 1, mean of dose level
[3] = 0.3 mg m-2, day 4, individual patients 1-3 in order
[4] = 0.3 mg m-2, day 4, mean of dose level
[5] = 0.6 mg m-2, day 1, individual patients 4-6 in order
[6] = 0.6 mg m-2, day 1, mean of dose level
[7] = 0.6 mg m-2, day 4, individual patients 4-6 in order
[8] = 0.6 mg m-2, day 4, mean of dose level
[9] = 1.2 mg m-2, day 1, individual patients 7-12 in order
[10] = 1.2 mg m-2, day 1, mean of dose level

## CC[C@@]1(O)C(=O)OCc2c1cc1n(c2=O)Cc2c-1nc1cc3c(cc1c2CN1CCN(C)CC1)OCCO3 [GI147211, [7 - (methylpiperazinomethylene) - 10,11 - ethylene-dioxy-20(S)] camptothecin dihydrochloride]
[1]
  AUCinf: 4.93 ng·h/mL and 4.04 ng·h/mL and 4.77 ng·h/mL
  Clearance, total plasma clearance: 1014 ml min-1 m-2 and 1238 ml min-1 m-2 and 1048 ml min-1 m-2
  Cmax: 3.63 ng/mL and 4.27 ng/mL and 3.73 ng/mL
  MRT: 2.89 h and 1.66 h and 3.33 h
  Vdss: 161 l m-2 and 104 l m-2 and 194 l m-2
  t1/2, elimination half-life: 2.96 h and 1.99 h and 2.63 h
  tmax: 0.42 h
[2]
  AUCinf, mean: 4.58 ng·h/mL
  Clearance, mean: 1100 ml min-1 m-2
  Cmax, mean: 3.88 ng/mL
  MRT, mean: 2.63 h
  Vdss, mean: 153 l m-2
  t1/2, mean: 2.52 h
  tmax, mean: 25.2 min
[3]
  AUCinf: 6.19 ng·h/mL and 6.79 ng·h/mL and 7.46 ng·h/mL
  Clearance, total plasma clearance: 808 ml min-1 m-2 and 736 ml min-1 m-2 and 670 ml min-1 m-2
  Cmax: 4.73 ng/mL and 4.30 ng/mL and 5.11 ng/mL
  MRT: 4.62 h and 4.73 h and 5.30 h
  Vdss: 207 l m-2 and 199 l m-2 (2×)
  t1/2, elimination half-life: 4.82 h and 2.34 h and 3.81 h
  tmax: 0.25 h (2×) and 0.42 h
[4]
  AUCinf, mean: 6.81 ng·h/mL
  Clearance, mean: 738 ml min-1 m-2
  Cmax, mean: 4.71 ng/mL
  MRT, mean: 4.88 h
  Vdss, mean: 202 l m-2
  t1/2, mean: 3.65 h
  tmax, mean: 18.6 min
[5]
  AUCinf: 10.10 ng·h/mL and 15.63 ng·h/mL and 14.00 ng·h/mL
  Clearance, total plasma clearance: 990 ml min-1 m-2 and 640 ml min-1 m-2 and 714 ml min-1 m-2
  Cmax: 9.16 ng/mL and 9.41 ng/mL and 11.46 ng/mL
  MRT: 4.01 h and 3.74 h and 3.52 h
  Vdss: 223 l m-2 and 134 l m-2 and 140 l m-2
  t1/2, elimination half-life: 3.35 h and 2.81 h and 2.80 h
  tmax: 0.42 h
[6]
  AUCinf, mean: 13.25 ng·h/mL
  Clearance, mean: 781 ml min-1 m-2
  Cmax, mean: 10.01 ng/mL
  MRT, mean: 3.76 h
  Vdss, mean: 166 l m-2
  t1/2, mean: 2.98 h
  tmax, mean: 25.2 min
[7]
  AUCinf: 11.21 ng·h/mL and 15.10 ng·h/mL and 15.94 ng·h/mL
  Clearance, total plasma clearance: 892 ml min-1 m-2 and 662 ml min-1 m-2
  Cmax: 7.60 ng/mL and 8.13 ng/mL and 9.29 ng/mL
  MRT: 4.89 h and 5.38 h and 6.35 h
  Vdss: 246 l m-2 and 203 l m-2 and 224 l m-2
  t1/2, elimination half-life: 3.42 h and 3.78 h and 4.15 h
  tmax: 0.42 h (2×) and 0.25 h
[8]
  AUCinf, mean: 14.08 ng·h/mL
  Clearance, mean: 727 ml min-1 m-2
  Cmax, mean: 8.34 ng/mL
  MRT, mean: 5.54 h
  Vdss, mean: 224 l m-2
  t1/2, mean: 3.78 h
  tmax, mean: 21.6 min
[9]
  AUCinf: 17.57 ng·h/mL and 24.95 ng·h/mL and 16.70 ng·h/mL and 15.05 ng·h/mL and 19.86 ng·h/mL and 19.42 ng·h/mL
  Clearance, total plasma clearance: 1138 ml min-1 m-2 and 802 ml min-1 m-2 and 1198 ml min-1 m-2 and 1329 ml min-1 m-2 and 1007 ml min-1 m-2 and 1030 ml min-1 m-2
  Cmax: 17.33 ng/mL and 11.97 ng/mL and 15.99 ng/mL and 12.83 ng/mL and 14.11 ng/mL and 17.65 ng/mL
  MRT: 3.01 h and 5.18 h and 2.94 h and 3.04 h and 3.98 h and 2.66 h
  Vdss: 189 l m-2 and 237 l m-2 and 193 l m-2 and 223 l m-2 and 225 l m-2 and 149 l m-2
  t1/2, elimination half-life: 3.62 h and 4.04 h and 2.54 h and 2.40 h and 5.10 h and 2.97 h
  tmax: 0.42 h (5×) and 0.25 h
[10]
  AUCinf, mean: 18.93 ng·h/mL
  Clearance, mean: 1084 ml min-1 m-2

From PMC2074382 (British Journal of Cancer, 1996)
